{"source": "patent US10675266B2", "about": "“Compounds and methods for treating autism spectrum disorders” (BIOCODEX, priority 2008, dated 2020)", "key": {"SMEI patients": {"test_system": "SMEI patients", "details": "cited from earlier work"}, "BALB/c mice": {"test_system": "BALB/c mice", "assay": "Social investigatory behaviour of BALB/c test mice towards a juvenile DBA/2J stimulus mouse", "assay_type": "in vivo", "details": "for duration of social contacts: 100, 200 and 300 mg/kg i.p. once daily for 5 days", "experimental": "(§1) The purpose of this study was to examine the effects of stiripentol on the social behavioural in BALB/c mice compared to C57BL/6J (C57) inbred mice. The social investigatory behaviour of mice was measured by the amount of time that the “test” mouse (BALB/c and C57 mice) engaged in social contact with the “stimulus” mouse (juvenile DBA/2J mice strain).\n(§2) All male mice (BALB/c, C57 and DBA/2J) were purchased from the Charles River breeding (Les Oncins-France). BALB/c and C57 mice were 8 weeks of age upon arrival at the laboratory. They were housed in temperature-controlled rooms (22±2° C.), separately by strain, with 5 mice per polycarbonate cage (type “S” cage: 265 mm L×160 mm W×140 mm H) and provided with food (A04-SAFE, France) and tap water ad libitum. Behavioral testing was conducted during the light period of a 12-h light:12-h dark cycle (lights on at 7 a.m.). The mice were used for behavioural testing starting 5-7 days after arrival at the laboratory whereas juvenile DBA/2J mice were used at 3-weeks of age and arrived at the laboratory 5 days prior testing. The experiments were conducted in accordance with the European Recommendations (directive 86/609/ECC) for the care and use of laboratory animals.\n(§3) The general procedure was conducted according to the protocol described by Fishkin and Winslow (1997) Psychopharmacology (Berl) 132:335-341 with slight modifications.\nTwenty-four hours prior to testing, BALB/c and C57 mice were individually housed in clear cage (type “S” cage). Food and water remained freely available. Individual housing was provided firstly to permit resident male mice an opportunity to scent mark and habituate to their home cage and, secondly to heighten the motivation of “test” mice for social interaction. All the animals were allowed to acclimate to the test room (natural lighting) for at least 1 h prior to testing which was conducted between 9 a.m. and 3 p.m.\nThe juvenile DBA/2J mouse was placed into BALB/c or C57 mouse cage for a 10-min observation period. The DBA/2J mouse served as “stimulus” mouse for one BALB/c mouse and one C57BL mouse. For each contact, an observer, sitting about 1 m from the cage; recorded the latency to the first contact (or approach) (in sec) towards the “stimulus” mouse and the time (in sec) that the “test” mouse spent in social investigatory behaviour. Nosing, sniffing, pawing, grooming and close following of the “stimulus” mouse by the young adult mouse were considered to be signs of social investigation. […]\n(§4) All data represent the mean±standard error of mean (S.E.M.). Treatment effects on mean latency to the first contact and on mean duration of social investigation were analyzed with two-way analysis of variance (ANOVA) with the strain and the treatment as factors. […]"}, "animal models": {"test_system": "animal models", "details": "several animal models; cited from earlier work"}, "[1]": {"test_system": "recombinant GABA-A receptors", "details": "cited from earlier work"}, "patients": {"test_system": "patients", "assay": "Observation of autism symptoms in patients after initiation of treatment", "assay_type": "in vivo, human", "description": "This observation can be confirmed by studies in animal models that mimic characteristic features of autism such as the models described by Moy S S et al, Behav. Brain Res. 176:4, 2007 and McFarlane H G et al, Genes, Brain and Behavior, 1601:1, 2007."}, "[2]": {"details": "doses 100, 200 and 300 mg/kg i.p.; from literature (Gasior 1999; Vincent 1991); cited from earlier work"}, "C57 mice": {"test_system": "C57 mice", "assay": "Social investigatory behaviour of C57 test mice towards a juvenile DBA/2J stimulus mouse", "assay_type": "in vivo", "experimental": "as §1, §2, §3\nTwenty-four hours prior to testing, BALB/c and C57 mice were individually housed in clear cage (type “S” cage). […]\nThe juvenile DBA/2J mouse was placed into BALB/c or C57 mouse cage for a 10-min observation period. […] For each contact, an observer, sitting about 1 m from the cage; recorded the latency to the first contact (or approach) (in sec) towards the “stimulus” mouse and the time (in sec) that the “test” mouse spent in social investigatory behaviour. […]\nas §4"}}, "data": [{"smiles": "CC(C)(C)C(O)/C=C/c1ccc2c(c1)OCO2", "note": "(racemic) [Stiripentol, 1-penten-3-ol, 1-(1,3-benzodioxol)-4,4-dimethyl]", "values": [{"measurement": "response rate", "setting": "SMEI patients; SMEI patients, 50 mg/kg/day", "value": "high response rate"}, {"measurement": "efficacy in double blind controlled clinical trials", "setting": "SMEI patients; two double blind controlled clinical trials (Chiron, Lancet 2000)", "value": "high efficacy"}, {"measurement": "latency to the first contact", "setting": "BALB/c mice; 100, 200, 300 mg/kg i.p. once daily for 5 days, last dose 60 min before testing, FIG. 1", "value": "trend for decrease"}, {"measurement": "duration of social contacts", "setting": "BALB/c mice; FIG. 2", "value": "increased duration of social contacts"}, {"measurement": "duration of social contacts", "setting": "BALB/c mice; FIG. 2, listed as stiripentol", "value": "significantly increased"}, {"measurement": "sociability", "setting": "BALB/c mice; sub-chronic treatment 100, 200 or 300 mg/kg i.p. x 5 days", "value": "enhanced the sociability"}, {"measurement": "anticonvulsant activity", "setting": "animal models", "value": "has shown anticonvulsant activity"}, {"measurement": "modulation of the GABA receptor", "setting": "[1]; Fisher, Neuropharmacology 2009", "value": "positive allosteric modulator"}, {"measurement": "potentiation by subunit subtype", "setting": "[1]; alpha subunit subtypes compared", "value": "alpha 3 subtype showed the greatest potentiation"}, {"measurement": "autism symptoms", "setting": "patients", "value": "resolution of autism symptoms"}, {"measurement": "adverse motor effects", "setting": "[2]", "value": "devoid of any adverse motor effects"}, {"measurement": "sedative effects", "setting": "C57 mice; 300 mg/kg i.p. once daily for 5 days", "value": "sedative effects in C57 mice began to appear"}, {"measurement": "duration of social contacts", "setting": "C57 mice; 300 mg/kg i.p. once daily for 5 days, FIG. 2", "value": "significantly lowered"}, {"measurement": "latency to the first contact", "setting": "C57 mice; up to 300 mg/kg i.p. once daily for 5 days, FIG. 1", "value": "without effects"}]}]}
